According to ChEMBL document CHEMBL1201862, “PubChem BioAssay data set” (2004):
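All cell lines were grown in 96-well plates and treated with compound for 48 hours. GI50 = concentration required for 50% inhibition of growth.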 Active and inactive are the calls of the source. No stated cut-off is given here; in the data, active = GI50 up to about 1.1 µM and inactive = higher.

Experiments:
Experiment in all cases: inhibition of tumour cell growth, NCI panel, 48 h
[1] = test system: UACC-62
[2] = test system: SNB-19
[3] = test system: HT-29
[4] = test system: CAKI-1
[5] = test system: SF-295
[6] = test system: OVCAR-4
[7] = test system: NCI-H460
[8] = test system: CCRF-CEM
[9] = test system: UO-31
[10] = test system: HOP-62
[11] = test system: Malme-3M
[12] = test system: SF-268
[13] = test system: SN12C
[14] = test system: A498
[15] = test system: HCT-15
[16] = test system: OVCAR-5
[17] = test system: MOLT-4
[18] = test system: K562
[19] = test system: NCI-H23
[20] = test system: KM12

SMILES	GI50 [1]	GI50 [2]	GI50 [3]	GI50 [4]	GI50 [5]	GI50 [6]	GI50 [7]	GI50 [8]	GI50 [9]	GI50 [10]	GI50 [11]	GI50 [12]	GI50 [13]	GI50 [14]	GI50 [15]	GI50 [16]	GI50 [17]	GI50 [18]	GI50 [19]	GI50 [20]
CO/N=C1/c2sccc2[C@H](NC(=O)CNC(=O)OC(C)(C)C)[C@@H]1O	> 100 µM (inactive)	> 100 µM (inactive)	> 100 µM (inactive)	> 100 µM (inactive)	> 100 µM (inactive)	> 100 µM (inactive)	> 100 µM (inactive)	> 100 µM (inactive)	> 100 µM (inactive)	> 100 µM (inactive)	> 100 µM (inactive)	> 100 µM (inactive)	> 100 µM (inactive)	> 100 µM (inactive)	> 100 µM	> 100 µM (inactive)	> 100 µM (inactive)	> 100 µM (inactive)	> 100 µM (inactive)	
CC12CC3(C)CC(C)(C1)CC(N=[N+]=[N-])(C2)C3	> 100 µM (inactive)	> 100 µM (inactive)	> 100 µM (inactive)	> 100 µM (inactive)	> 100 µM (inactive)	> 100 µM (inactive)	> 100 µM (inactive)	> 100 µM (inactive)	> 100 µM (inactive)	> 100 µM (inactive)	> 100 µM (inactive)	> 100 µM (inactive)	> 100 µM (inactive)	> 100 µM (inactive)		> 100 µM (inactive)	> 100 µM (inactive)	> 100 µM (inactive)	> 100 µM (inactive)	> 100 µM (inactive)
S=c1sc2cscc2s1	18.2 µM (inactive)	21.3 µM (inactive)	44.1 µM (inactive)	16.8 µM (inactive)	54.1 µM (inactive)	16.4 µM (inactive)	24.1 µM (inactive)	22 µM (inactive)	19.1 µM (inactive)	32.8 µM (inactive)	12.6 µM (inactive)	31.4 µM (inactive)	32.6 µM (inactive)	71.6 µM (inactive)	34 µM	69.2 µM (inactive)	34.4 µM (inactive)	42.6 µM (inactive)	28.8 µM (inactive)	17.6 µM (inactive)
CC(=O)OCC1OC(n2cc(F)c(=O)[nH]c2=O)C(N)C(OC(C)=O)C1OC(C)=O (stereo not given)	> 100 µM (inactive)	> 100 µM (inactive)	> 100 µM (inactive)	> 100 µM (inactive)	> 100 µM (inactive)	> 100 µM (inactive)	> 100 µM (inactive)	> 100 µM (inactive)	> 100 µM (inactive)	> 100 µM (inactive)	> 100 µM (inactive)	> 100 µM (inactive)	> 100 µM (inactive)	> 100 µM (inactive)	> 100 µM	> 100 µM (inactive)	> 100 µM (inactive)	> 100 µM (inactive)	> 100 µM (inactive)	> 100 µM (inactive)
CCN(CC)CCNCc1cc(Cl)cc2c1OCOC2	> 10 µM (inactive)	> 10 µM (inactive)	> 10 µM (inactive)	> 10 µM (inactive)	> 10 µM (inactive)	> 10 µM (inactive)	> 10 µM (inactive)	> 10 µM (inactive)	> 10 µM (inactive)	> 10 µM (inactive)	> 10 µM (inactive)	> 10 µM (inactive)	> 10 µM (inactive)	> 10 µM (inactive)	> 10 µM	> 10 µM (inactive)	> 10 µM (inactive)	> 10 µM (inactive)	> 10 µM (inactive)	> 10 µM (inactive)
Cc1[nH]c(=O)[nH]c(=O)c1/C=C/C(=O)NC(CO)C[S+]([O-])C[S+](C)[O-] (stereo not given)	12.5 µM (inactive)	13.2 µM (inactive)	125 µM (inactive)	4.93 µM (inactive)	15.6 µM (inactive)	2.17 µM (inactive)	16.6 µM (inactive)	14.6 µM (inactive)	23.7 µM (inactive)	16.6 µM (inactive)	12.2 µM (inactive)	4.17 µM (inactive)	14.2 µM (inactive)	21.8 µM (inactive)	44.3 µM	135 µM (inactive)	18.7 µM (inactive)	19.5 µM (inactive)	10.8 µM (inactive)	18.4 µM (inactive)
COc1ccc(CC/N=C2\CCC(C(=O)NCCc3ccc(OC)c(OC)c3)N2)cc1OC (stereo not given)	> 100 µM (inactive)	> 100 µM (inactive)	> 100 µM (inactive)	> 100 µM (inactive)	> 100 µM (inactive)	> 100 µM (inactive)	> 100 µM (inactive)	> 100 µM (inactive)	> 100 µM (inactive)	> 100 µM (inactive)	> 100 µM (inactive)	> 100 µM (inactive)	> 100 µM (inactive)	> 100 µM (inactive)	> 100 µM	> 100 µM (inactive)	> 100 µM (inactive)	> 100 µM (inactive)	> 100 µM (inactive)	> 100 µM (inactive)
S=c1nc(Nc2ccc(Br)cc2)c2c3c(sc2[nH]1)CN(N1CCc2c(sc4[nH]c(=S)nc(Nc5ccc(Br)cc5)c24)C1)CC3	15.1 µM (inactive)	22.5 µM (inactive)	15.5 µM (inactive)	> 50 µM (inactive)	19.1 µM (inactive)	30.2 µM (inactive)	23.8 µM (inactive)	23.9 µM (inactive)	20.1 µM (inactive)	17.5 µM (inactive)	44.1 µM (inactive)	33.7 µM (inactive)	28.4 µM (inactive)	11.3 µM (inactive)	22.5 µM	16 µM (inactive)	12.8 µM (inactive)	11.1 µM (inactive)	24 µM (inactive)	21.6 µM (inactive)
O=C1C(c2ccc(C3=[N+]([O-])c4cc([N+](=O)[O-])ccc4C3=O)cc2)=[N+]([O-])c2cc([N+](=O)[O-])ccc21	> 10 µM (inactive)	> 10 µM (inactive)	> 10 µM (inactive)	> 10 µM (inactive)	> 10 µM (inactive)	> 10 µM (inactive)	> 10 µM (inactive)	> 10 µM (inactive)	> 10 µM (inactive)	66.7 µM (inactive)	> 10 µM (inactive)		> 10 µM (inactive)	> 10 µM (inactive)	> 10 µM	> 10 µM (inactive)	> 10 µM (inactive)	> 10 µM (inactive)	> 10 µM (inactive)	> 10 µM (inactive)
COc1ccc(C2C(N)=NCC2c2ccccn2)cc1 (stereo not given)	> 100 µM (inactive)	> 100 µM (inactive)	> 100 µM (inactive)	> 100 µM (inactive)	> 100 µM (inactive)	> 100 µM (inactive)	> 100 µM (inactive)	> 100 µM (inactive)	> 100 µM (inactive)	> 100 µM (inactive)	> 100 µM (inactive)	> 100 µM (inactive)	> 100 µM (inactive)	> 100 µM (inactive)		> 100 µM (inactive)	> 100 µM (inactive)	> 100 µM (inactive)	> 100 µM (inactive)	> 100 µM (inactive)
Cc1cc(C)c2c(n1)S(=O)(=O)N(CCCN1CCN(c3cccc(C(F)(F)F)c3)CC1)C(C(=O)c1ccccc1)=C2O	10.2 µM (inactive)	5.53 µM (inactive)	5.22 µM (inactive)	2.79 µM (inactive)	4.11 µM (inactive)	4.66 µM (inactive)	4.66 µM (inactive)	5.19 µM (inactive)	5.42 µM (inactive)	8.38 µM (inactive)	18.4 µM (inactive)	8.51 µM (inactive)	4.55 µM (inactive)	8.57 µM (inactive)	4.62 µM	7.36 µM (inactive)	2.67 µM (inactive)	3.69 µM (inactive)	5.06 µM (inactive)	5.02 µM (inactive)
COc1ccc(C2=C(Cl)c3cc(OC)c(OC)cc3C2Cl)cc1 (stereo not given)	14.6 µM (inactive)	18.7 µM (inactive)	14.8 µM (inactive)	15.4 µM (inactive)	15.4 µM (inactive)	13.6 µM (inactive)	9.71 µM (inactive)	2.84 µM (inactive)	6.55 µM (inactive)	17.8 µM (inactive)	19.1 µM (inactive)	16 µM (inactive)	13.5 µM (inactive)	13.2 µM (inactive)	12.3 µM	15.5 µM (inactive)	4.34 µM (inactive)	5.24 µM (inactive)	> 37.4 µM (inactive)	13.6 µM (inactive)
NC(=S)N/N=C1\C(=O)Nc2c(Cl)cc(Cl)cc21	17.3 µM (inactive)	31.3 µM (inactive)	18.8 µM (inactive)	41.2 µM (inactive)	19.2 µM (inactive)	34 µM (inactive)	17.1 µM (inactive)	23.5 µM (inactive)	28.1 µM (inactive)	13 µM (inactive)	16.2 µM (inactive)		19.5 µM (inactive)	32.4 µM (inactive)	24.8 µM	81.7 µM (inactive)	14 µM (inactive)	29.6 µM (inactive)	37.6 µM (inactive)	18.9 µM (inactive)
C1#Cc2ccccc2OCCOc2ccccc2C#Cc2ccccc2OCCOc2ccccc21	> 100 µM (inactive)	25.9 µM (inactive)	66.5 µM (inactive)	17.7 µM (inactive)	21.6 µM (inactive)	10.9 µM (inactive)	24.9 µM (inactive)	18 µM (inactive)	46.7 µM (inactive)	8.77 µM (inactive)	28.1 µM (inactive)	19.7 µM (inactive)	30.7 µM (inactive)	17.3 µM (inactive)	> 100 µM	24 µM (inactive)	16.2 µM (inactive)	11.7 µM (inactive)	16.9 µM (inactive)	68.2 µM (inactive)
